This experiment addresses T1, Recombinant mouse PD-L1 (Mus musculus, UniProt Q9EP73).
T1 construct: Fc (Fc chimera); purchased R&D Systems 1019-B7-100
The experiment is described as follows: Rescue of mouse splenocyte proliferation in the presence of recombinant PD-L1 (CFSE proliferation assay). It is filed as cell-based. Conditions: 100 nM compound; CFSE-labelled C57 BL6 mouse splenocytes + anti-CD3/CD28 + PD-L1 (100 ng/mL), 72 h; normalised to stimulated splenocytes as 100%; read-out: Percent rescue of splenocyte proliferation (@100 nM). The procedure:
Example 15: Rescue of Mouse Splenocyte Proliferation in the Presence of Recombinant PD-L1
Recombinant mouse PD-L1 (rm-PDL-1, cat no: 1019-B7-100; R&D Systems) were used as the source of PD-L1.
Mouse splenocytes harvested from 6-8 weeks old C57 BL6 mice; RPMI 1640 (GIBCO, Cat #11875); DMEM with high glucose (GIBCO, Cat # D6429); Fetal Bovine Serum [Hyclone, Cat # SH30071.03]; Penicillin (10000 unit/mL)-Streptomycin (10,000 μg/mL) Liquid (GIBCO, Cat #15140-122); MEM Sodium Pyruvate solution 100 mM (100×), Liquid (GIBCO, Cat #11360); Nonessential amino acid (GIBCO, Cat #11140); L-Glutamine (GIBCO, Cat #25030); Anti-CD3 antibody (eBiosciences—16-0032); Anti-CD28 antibody (eBiosciences—16-0281); ACK lysis buffer (1 mL) (GIBCO, Cat #-A10492); Histopaque (density-1.083 gm/mL) (SIGMA 10831); Trypan blue solution (SIGMA-T8154); 2 mL Norm Ject Luer Lock syringe-(Sigma 2014-12); 40 μm nylon cell strainer (BD FALCON 35230); Hemacytometer (Bright line-SIGMA Z359629); FACS Buffer (PBS/0.1% BSA): Phosphate Buffered Saline (PBS) pH 7.2 (HiMedia TS1006) with 0.1% Bovine Serum Albumin (BSA) (SIGMA A7050) and sodium azide (SIGMA 08591); 5 mM stock solution of CFSE: CFSE stock solution was prepared by diluting lyophilized CFSE with 180 μL of Dimethyl sulfoxide (DMSO C2H6SO, SIGMA-D-5879) and aliquoted in to tubes for further use. Working concentrations were titrated from 10 μM to 1 μM. (eBioscience—650850-85); 0.05% Trypsin and 0.02% EDTA (SIGMA 59417C); 96-well format ELISA plates (Corning CLS3390); BD FACS caliber (E6016); Recombinant mouse B7-H1/PDL1 Fc Chimera, (rm-PD-L1 cat no: 1019-B7-100).
Splenocytes harvested in a 50 mL falcon tube by mashing mouse spleen in a 40 μm cell strainer were further treated with 1 mL ACK lysis buffer for 5 min at room temperature. After washing with 9 mL of RPMI complete media, cells were re-suspended in 3 mL of 1×PBS in a 15 mL tube. 3 mL of Histopaque was added carefully to the bottom of the tube without disturbing overlaying splenocyte suspension. After centrifuging at 800×g for 20 min at room temperature, the opaque layer of splenocytes was collected carefully without disturbing/mixing the layers. Splenocytes were washed twice with cold 1×PBS followed by total cell counting using Trypan Blue exclusion method and used further for cell based assays.
Splenocytes were cultured in RPMI complete media (RPMI+10% fetal bovine serum+1 mM sodium pyruvate+10,000 units/mL penicillin and […] streptomycin) and maintained in a CO2 incubator with 5% CO2 at 37° C.
CFSE is a dye that passively diffuses into cells and binds to intracellular proteins. 1×10^6 cells/mL of harvested splenocytes were treated with 5 μM of CFSE in pre-warmed 1×PBS/0.1% BSA solution for 10 min at 37° C. Excess CFSE was quenched using 5 volumes of ice-cold culture media to the cells and incubated on ice for 5 min. CFSE labelled splenocytes were further given three washes with ice cold complete RPMI media. CFSE labelled 1×10^5 splenocytes added to wells containing either MDA-MB231 cells (1×10^5 cells cultured in high glucose DMEM medium) or recombinant human PDL-1 (100 ng/mL) and test compounds. Splenocytes were stimulated with anti-mouse CD3 and anti-mouse CD28 antibody (1 μg/mL each) and the culture was further incubated for 72 h at 37° C. with 5% CO2. Cells were harvested and washed thrice with ice cold FACS buffer and % proliferation was analysed by flow cytometry with 488 nm excitation and 521 nm emission filters.
Percent splenocyte proliferation was analysed using cell quest FACS program and percent rescue of splenocyte proliferation by compound was estimated after deduction of % background proliferation value and normalising to % stimulated splenocyte proliferation (positive control) as 100%.
Stimulated splenocytes: Splenocytes+anti-CD3/CD28 stimulation
Background proliferation: Splenocytes+anti-CD3/CD28+PD-L1
Compound proliferation: Splenocytes+anti-CD3/CD28+PD-L1+Compound […]
T1 sequence (Q9EP73 with tags, fused parts or gaps limits assumed): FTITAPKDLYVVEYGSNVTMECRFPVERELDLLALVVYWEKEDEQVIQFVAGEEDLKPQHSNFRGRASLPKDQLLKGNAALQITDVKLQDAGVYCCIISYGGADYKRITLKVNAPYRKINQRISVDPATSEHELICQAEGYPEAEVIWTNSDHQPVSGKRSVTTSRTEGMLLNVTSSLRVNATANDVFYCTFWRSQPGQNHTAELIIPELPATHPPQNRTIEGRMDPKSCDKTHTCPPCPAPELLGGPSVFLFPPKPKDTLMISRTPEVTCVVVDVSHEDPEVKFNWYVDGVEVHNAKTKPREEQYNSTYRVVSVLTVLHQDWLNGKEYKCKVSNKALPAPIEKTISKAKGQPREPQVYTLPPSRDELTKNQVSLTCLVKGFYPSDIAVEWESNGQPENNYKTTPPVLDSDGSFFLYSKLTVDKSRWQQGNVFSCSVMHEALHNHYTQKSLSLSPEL
In the case of `CC(O)[C@H](NC(=O)N[C@@H](Cc1ccccc1)c1nc([C@@H](N)CO)no1)C(=O)O` (some centres unmarked) [Compound 14], the activation at 0.1 µM came to 92%.
As for `N[C@@H](Cc1ccc(O)cc1)c1noc([C@@H]2CCCCN2C(=O)N[C@@H](Cc2ccc(O)cc2)C(=O)O)n1` [Compound 20], the figure is 51%.
Next, `NCCCC[C@H](N)c1noc([C@H](CCC(=O)O)NC(=O)N[C@@H](CO)C(=O)O)n1` [Compound 37]: 60%.
Next, `CSCC[C@H](N)c1noc([C@H](CC(N)=O)NC(=O)N[C@@H](CC(=O)O)C(=O)O)n1` [Compound 46]: 53%; `NC(=O)C[C@H](NS(=O)(=O)C1CC1)c1nc([C@@H](N)CO)no1` [Compound 84]: 71%; `CCCNC(=O)CC[C@H](NC(=O)N[C@H](C(=O)O)C(C)O)c1nc([C@@H](N)CO)no1` (some centres unmarked) [Compound 75]: 119%.
In the case of `CCN(Cc1ccccc1)C(=O)N[C@@H](CC(N)=O)c1nc([C@@H](N)CO)no1` (stereo in doubt) [Compound 94], the activation at 0.1 µM stood at 97%.
As for `NC(=O)C[C@H](NS(=O)(=O)C1CCCC1)c1nc([C@@H](N)CO)no1` [Compound 88], the activation at 0.1 µM was 10%.
As for `CC(O)[C@H](NC(=O)N[C@@H](CC(=O)O)c1nc([C@@H](N)Cc2cnc[nH]2)no1)C(=O)O` (some centres unmarked) [Compound 34], the figure is 59%; as for `N[C@@H](CO)c1noc([C@H](CO)NC(=O)N[C@@H](CO)C(=O)O)n1` [Compound 47], 49%.
As for `CC(O)[C@H](N)c1noc([C@H](Cc2ccccc2)NC(=O)N2CCC[C@H]2C(=O)O)n1` (some centres unmarked) [Compound 62], the figure is 35%.
As for `C[C@H](NC(=O)N[C@@H](C)c1nc([C@H](C)N)no1)C(=O)O` [Compound 1], the figure is 76%.
For `N[C@@H](CC(=O)O)c1noc([C@@H]2CCCN2C(=O)N[C@@H](CC(=O)O)C(=O)O)n1` [Compound 23], the activation at 0.1 µM came to 49%.
For the molecule `CC(O)[C@H](NC(=O)N[C@@H](CC(N)=O)c1nc([C@@H](N)CO)no1)C(=O)Nc1ccc2c(c1)OCCO2` (some centres unmarked) [Compound 51], the activation at 0.1 µM was 20%.
As for `CC(O)[C@H](NC(=O)N[C@@H](CC(=O)O)c1nc([C@@H](N)CCCNC(=N)N)no1)C(=O)O` (some centres unmarked) [Compound 32], the figure is 70%; as for `CC(O)[C@H](NC(=O)N[C@@H](CCC(=O)O)c1nc([C@@H](N)CCCCN)no1)C(=O)O` (some centres unmarked) [Compound 38], 52%; as for `N=C(N)NCCC[C@H](N)c1noc([C@H](CC(=O)O)NC(=O)N[C@@H](CO)C(=O)O)n1` [Compound 30], 65%.
In the case of `CC(O)[C@H](NC(=O)N[C@H](c1nc([C@@H](N)CO)no1)C(C)C)C(=O)O` (some centres unmarked) [Compound 44], the activation at 0.1 µM amounted to 71%.
As for `CC(=O)Nc1ccc(S(=O)(=O)N[C@@H](CC(N)=O)c2nc([C@@H](N)CO)no2)cc1` [Compound 90], the figure is 66%; as for `CC(O)[C@H](N)c1noc([C@H](Cc2ccc(O)cc2)NC(=O)N2CCC[C@H]2C(=O)O)n1` (some centres unmarked) [Compound 60], 99%.

The values are drawn from patent publication US10781189B2, “1,2,4-Oxadiazole and thiadiazole compounds as immunomodulators” (Aurigene Discovery Technologies Limited, priority 2015, dated 2020).
